{
  "source": "patent US20130096145A1",
  "about": "“Use of 1H-quinazoline-2,4-diones” (Novartis AG, priority 2010, published 2013)",
  "data": [
    {"test_system": "OF1 mice", "assay": "Murine maximal electroshock test (MES Test)", "type": "in vivo", "conditions": "Mus musculus, po, pre-treatment time 1 h; protected = seizure duration 3 s or less", "experimental": "(§1) Compounds of the invention were tested in OF1 mice using the maximal electroshock test (MES Test) described in detail by Schmutz et al., Naunyn-Schmiedeberg's Arch Pharmacol 1990, 342, 61-66. Briefly, generalized tonic-clonic convulsions of the hind extremities were induced by passing electrical current through temporal electrodes (50 Hz, 18 mA, 0.2s). […] 30 mg/kg carbamazepine was used as a positive control; mice were classified as protected by a compound if the duration of the seizure lasted only 3 second or less. Five mice were used for each treatment condition and the percentage of protected mice was used as readout (i.e. a compound could give 0%, 20%, 40%, 60%, 80% or 100% protection). Compounds of the invention were given at a dose of 50 mg/kg, p.o., 1 hour prior to induction of convulsions (i.e. “pre-treatment time -1 h”). ED50 values (ED: effective dose) were calculated using GraphPad Prism, v4.02. 15 s after shock administration, mouse blood was collected for determination of compounds' blood exposure.", "units": {"ED50": "mg/kg"}, "values": [
      {"smiles": "CC(C)n1nccc1-c1cc2c(=O)n(NS(C)(=O)=O)c(=O)[nH]c2cc1CF", "note": "[Compound C-3, N-[7-Fluoromethyl-6-(2-isopropyl-2H-pyrazol-3-yl)-2,4-dioxo-1,4-dihydro-2H-quinazolin-3-yl]-methanesulfonamide]", "ED50": 13.5}
    ]},
    {"test_system": "OF1 mice", "assay": "Murine maximal electroshock test (MES Test)", "type": "in vivo", "conditions": "p.o., pre-treatment time 1 h; protected = seizure duration 3 s or less", "experimental": "as §1", "units": {"MES-Test (1 h, po) ED50": "mg/kg"}, "values": [
      {"smiles": "CS(=O)(=O)Nn1c(=O)[nH]c2cc(C(F)(F)F)c(C3CCCO3)cc2c1=O", "note": "[B-2 (S), N-[2,4-Dioxo-6-(tetrahydro-furan-2-yl)-7-trifluoromethyl-1,4-dihydro-2H-quinazolin-3-yl]-methanesulfonamide]", "MES-Test (1 h, po) ED50": 33.2},
      {"smiles": "CS(=O)(=O)Nn1c(=O)[nH]c2cc(C(F)(F)F)c(C3CCCO3)cc2c1=O", "note": "[B-2 (R), N-[2,4-Dioxo-6-(tetrahydro-furan-2-yl)-7-trifluoromethyl-1,4-dihydro-2H-quinazolin-3-yl]-methanesulfonamide]", "MES-Test (1 h, po) ED50": 12.8}
    ]},
    {"test_system": "OF1 mice", "assay": "Murine maximal electroshock test (MES Test)", "type": "in vivo", "conditions": "percentage of protected mice (5 per condition) @25, p.o., 1 h", "experimental": "as §1", "units": {"MES-Test (1 h, po) protection @25": "% @25^3"}, "values": [
      {"smiles": "CS(=O)(=O)Nn1c(=O)[nH]c2cc(C(F)(F)F)c(C3CCOC3)cc2c1=O", "note": "(stereo not shown) [Compound B-3, N-[2,4-Dioxo-6-(tetrahydro-furan-3-yl)-7-trifluoromethyl-1,4-dihydro-2H-quinazolin-3-yl]-methanesulfonamide]", "MES-Test (1 h, po) protection @25": 20}
    ]},
    {"test_system": "OF1 mice", "assay": "Murine maximal electroshock test (MES Test)", "type": "in vivo", "conditions": "percentage of protected mice (5 per condition) @50, p.o., 1 h", "experimental": "as §1", "units": {"MES-Test (1 h, po) protection @50": "% @50"}, "values": [
      {"smiles": "CCc1cc2[nH]c(=O)n(NS(C)(=O)=O)c(=O)c2cc1-c1ccnn1C(C)C", "note": "[Compound C-6, N-[7-Ethyl-6-(2-isopropyl-2H-pyrazol-3-yl)-2,4-dioxo-1,4-dihydro-2H-quinazolin-3-yl]-methanesulfonamide]", "MES-Test (1 h, po) protection @50": 20}
    ]},
    {"test_system": "mouse", "assay": "Oral bioavailability: audiogenic mouse test and/or MES test", "type": "in vivo", "conditions": "oral administration", "experimental": "The oral bioavailability was tested using the audiogenic mouse test (Audiogenic seizures, R. L. Collins; Chapter 14, pages: 347-372. In: Experimental Models of Epilepsy; By: Pupura, Penry, Tower, Woodbury, Walter, Raven Press, New York, 1972. Standard Book Number: 0-911216-26-X) and/or the MES test.\nas §1", "values": [
      {"smiles": "Cn1nccc1-c1cc2c(=O)n(NS(C)(=O)=O)c(=O)[nH]c2cc1C(F)(F)F", "note": "[Compound C-18, N-[6-(2-Methyl-2H-pyrazol-3-yl)-2,4-dioxo-7-trifluoromethyl-1,4-dihydro-2H-quinazolin-3-yl]-methanesulfonamide]", "In vivo orally active": "Yes"},
      {"smiles": "CC(C)n1nccc1-c1cc2c(=O)n(NS(C)(=O)=O)c(=O)[nH]c2cc1C(C)(F)F", "note": "[Compound C-16, N-[7-(1,1-difluoro-ethyl)-6-(2-isopropyl-2H-pyrazol-3-yl)-2,4-dioxo-1,4-dihydro-2H-quinazolin-3-yl]-methanesulfonamide]", "In vivo orally active": "Yes"},
      {"smiles": "CS(=O)(=O)Nn1c(=O)[nH]c2cc(C(F)(F)F)c(C3CCOC3)cc2c1=O", "note": "(stereo not shown) [Compound B-3, N-[2,4-Dioxo-6-(tetrahydro-furan-3-yl)-7-trifluoromethyl-1,4-dihydro-2H-quinazolin-3-yl]-methanesulfonamide]", "In vivo orally active": "Yes"},
      {"smiles": "CCc1cc2[nH]c(=O)n(NS(C)(=O)=O)c(=O)c2cc1-c1ccnn1C(C)C", "note": "[Compound C-6, N-[7-Ethyl-6-(2-isopropyl-2H-pyrazol-3-yl)-2,4-dioxo-1,4-dihydro-2H-quinazolin-3-yl]-methanesulfonamide]", "In vivo orally active": "yes"},
      {"smiles": "CS(=O)(=O)Nn1c(=O)[nH]c2cc(C(F)(F)F)c(-c3ccnn3O)cc2c1=O", "note": "[Compound C-5, N-[6-(2-Hydroxy-2H-pyrazol-3-yl)-2,4-dioxo-7-trifluoromethyl-1,4-dihydro-2H-quinazolin-3-yl]-methanesulfonamide]", "In vivo orally active": "Yes"},
      {"smiles": "CCCOC(CC)c1cc2c(=O)n(NS(C)(=O)=O)c(=O)[nH]c2cc1C(F)(F)F", "note": "(stereo not shown) [Compound A-6, N-[2,4-Dioxo-6-(1-propoxy-propyl)-7-trifluoromethyl-1,4-dihydro-2H-quinazolin-3-yl]-methanesulfonamide]", "In vivo orally active": "Yes"},
      {"smiles": "CCC(OC(C)C)c1cc2c(=O)n(NS(C)(=O)=O)c(=O)[nH]c2cc1C(F)(F)F", "note": "(stereo not shown) [Compound A-7, N-[6-(1-isopropoxy-propyl)-2,4-dioxo-7-trifluoromethyl-1,4-dihydro-2H-quinazolin-3-yl]-methanesulfonamide]", "In vivo orally active": "Yes"},
      {"smiles": "CC(C)n1nccc1-c1cc2c(=O)n(NS(C)(=O)=O)c(=O)[nH]c2cc1CF", "note": "[Compound C-3, N-[7-Fluoromethyl-6-(2-isopropyl-2H-pyrazol-3-yl)-2,4-dioxo-1,4-dihydro-2H-quinazolin-3-yl]-methanesulfonamide]", "In vivo orally active": "Yes"},
      {"smiles": "CC(C)n1nccc1-c1cc2c(=O)n(NS(C)(=O)=O)c(=O)[nH]c2cc1C(F)(F)F", "note": "[Compound C-2, N-[6-(2-Isopropyl-2H-pyrazol-3-yl)-2,4-dioxo-7-trifluoromethyl-1,4-dihydro-2H-quinazolin-3-yl]-methanesulfonamide]", "In vivo orally active": "Yes"},
      {"smiles": "CCc1cc2[nH]c(=O)n(NS(C)(=O)=O)c(=O)c2cc1-c1ccnn1CC", "note": "[Compound C-12, N-[7-Ethyl-6-(2-ethyl-2H-pyrazol-3-yl)-2,4-dioxo-1,4-dihydro-2H-quinazolin-3-yl]-methanesulfonamide]", "In vivo orally active": "Yes"},
      {"smiles": "COCCC(O)c1cc2c(=O)n(NS(C)(=O)=O)c(=O)[nH]c2cc1C(F)(F)F", "note": "(stereo not shown) [Compound A-18, N-[6-(1-Hydroxy-3-methoxy-propyl)-2,4-dioxo-7-trifluoromethyl-1,4-dihydro-2H-quinazolin-3-yl]-methanesulfonamide]", "In vivo orally active": "Yes"},
      {"smiles": "CCC(O)c1cc2c(=O)n(NS(C)(=O)=O)c(=O)[nH]c2cc1C(F)(F)F", "note": "(stereo not shown) [Compound A-3, N-[6-(1-Hydroxy-propyl)-2,4-dioxo-7-trifluoromethyl-1,4-dihydro-2H-quinazolin-3-yl]-methanesulfonamide]", "In vivo orally active": "Yes"},
      {"smiles": "CC(F)c1cc2[nH]c(=O)n(NS(C)(=O)=O)c(=O)c2cc1-c1ccnn1C(C)C", "note": "(stereo not shown) [Compound C-17, N-[7-(1-fluoro-ethyl)-6-(2-isopropyl-2H-pyrazol-3-yl)-2,4-dioxo-1,4-dihydro-2H-quinazolin-3-yl]-methanesulfonamide]", "In vivo orally active": "Yes"},
      {"smiles": "CCCC(O)c1cc2c(=O)n(NS(C)(=O)=O)c(=O)[nH]c2cc1C(F)(F)F", "note": "(stereo not shown) [Compound A-15, N-[6-(1-Hydroxy-butyl)-2,4-dioxo-7-trifluoromethyl-1,4-dihydro-2H-quinazolin-3-yl]-methanesulfonamide]", "In vivo orally active": "Yes"},
      {"smiles": "CC(C)OC(C)c1cc2c(=O)n(NS(C)(=O)=O)c(=O)[nH]c2cc1C(F)(F)F", "note": "(stereo not shown) [Compound A-4, N-[6-(1-Isopropoxy-ethyl)-2,4-dioxo-7-trifluoromethyl-1,4-dihydro-2H-quinazolin-3-yl]-methanesulfonamide]", "In vivo orally active": "Yes"},
      {"smiles": "CC(OC1CCCC1)c1cc2c(=O)n(NS(C)(=O)=O)c(=O)[nH]c2cc1C(F)(F)F", "note": "(stereo not shown) [Compound A-14, N-[6-(1-Cyclopentyloxy-ethyl)-2,4-dioxo-7-trifluoromethyl-1,4-dihydro-2H-quinazolin-3-yl]-methanesulfonamide]", "In vivo orally active": "yes"},
      {"smiles": "COC(C)c1cc2c(=O)n(NS(C)(=O)=O)c(=O)[nH]c2cc1C(F)(F)F", "note": "(stereo not shown) [Compound A-2, N-[6-(1-Methoxy-ethyl)-2,4-dioxo-7-trifluoromethyl-1,4-dihydro-2H-quinazolin-3-yl]-methanesulfonamide]", "In vivo orally active": "Yes"},
      {"smiles": "CC(C)n1nccc1-c1cc2c(=O)n(NS(C)(=O)=O)c(=O)[nH]c2cc1C(F)F", "note": "[Compound C-10, N-[7-Difluoromethyl-6-(2-isopropyl-2H-pyrazol-3-yl)-2,4-dioxo-1,4-dihydro-2H-quinazolin-3-yl]-methanesulfonamide]", "In vivo orally active": "Yes"},
      {"smiles": "CS(=O)(=O)Nn1c(=O)[nH]c2cc(C(F)(F)F)c(C3CCCO3)cc2c1=O", "note": "(stereo not shown) [Compound B-2, N-[2,4-Dioxo-6-(tetrahydro-furan-2-yl)-7-trifluoromethyl-1,4-dihydro-2H-quinazolin-3-yl]-methanesulfonamide]", "In vivo orally active": "Yes"},
      {"smiles": "CC(O)c1cc2c(=O)n(NS(C)(=O)=O)c(=O)[nH]c2cc1C(F)(F)F", "note": "(stereo not shown) [Compound A-1, N-[6-(1-Hydroxy-ethyl)-2,4-dioxo-7-trifluoromethyl-1,4-dihydro-2H-quinazolin-3-yl]-methanesulfonamide]", "In vivo orally active": "Yes"},
      {"smiles": "CC(C)c1cc2[nH]c(=O)n(NS(C)(=O)=O)c(=O)c2cc1-c1ccnn1C", "note": "[Compound C-7, N-[7-Isopropyl-6-(2-methyl-2H-pyrazol-3-yl)-2,4-dioxo-1,4-dihydro-2H-quinazolin-3-yl]-methanesulfonamide]", "In vivo orally active": "Yes"},
      {"smiles": "CCOC(C)c1cc2c(=O)n(NS(C)(=O)=O)c(=O)[nH]c2cc1C(F)(F)F", "note": "(stereo not shown) [Compound A-5, N-[6-(1-Ethoxy-ethyl)-2,4-dioxo-7-trifluoromethyl-1,4-dihydro-2H-quinazolin-3-yl]-methanesulfonamide]", "In vivo orally active": "Yes"},
      {"smiles": "Cn1nccc1-c1cc2c(=O)n(NS(C)(=O)=O)c(=O)[nH]c2cc1C(F)F", "note": "[Compound C-9, N-[7-Difluoromethyl-6-(2-methyl-2H-pyrazol-3-yl)-2,4-dioxo-1,4-dihydro-2H-quinazolin-3-yl]-methanesulfonamide]", "In vivo orally active": "Yes"},
      {"smiles": "CCOC(CC)c1cc2c(=O)n(NS(C)(=O)=O)c(=O)[nH]c2cc1C(F)(F)F", "note": "(stereo not shown) [Compound A-13, N-[6-(1-Ethoxy-propyl)-2,4-dioxo-7-trifluoromethyl-1,4-dihydro-2H-quinazolin-3-yl]-methanesulfonamide]", "In vivo orally active": "Yes"},
      {"smiles": "CCc1cc2[nH]c(=O)n(NS(C)(=O)=O)c(=O)c2cc1-c1ccnn1C", "note": "[Compound C-11, N-[7-Ethyl-6-(2-methyl-2H-pyrazol-3-yl)-2,4-dioxo-1,4-dihydro-2H-quinazolin-3-yl]-methanesulfonamide]", "In vivo orally active": "Yes"},
      {"smiles": "COCCn1nccc1-c1cc2c(=O)n(NS(C)(=O)=O)c(=O)[nH]c2cc1C(F)(F)F", "note": "[Compound C-4, N-{6-[2-(2-Methoxy-ethyl)-2H-pyrazol-3-yl]-2,4-dioxo-7-trifluoromethyl-1,4-dihydro-2H-quinazolin-3-yl}-methanesulfonamide]", "In vivo orally active": "Yes"}
    ]}
  ]
}
